Structures are written as SMILES. “And” between values parts separate entries of the source, which are not always exact repeats. Equal values may be shown once. Where a name gives a salt, the structure may show the parent alone. Read-outs that look alike come from different tables or passages of the source.

The test system of this test is BDNF-induced nuclear Arc expression in primary cortical neurons. As to the kind of experiment: Chemogenomic screen: high-content image-based assay of BDNF-induced nuclear Arc expression (96-well). It is filed as cell-based, mouse. Put shortly: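 DIV13 mouse primary cortical neurons (30,000 cells/well) are treated with compound at 16.7 µM and BDNF, in three biological replicates. Arc and acetyl-H3K9 are immunostained and imaged at ×40, and nuclear Arc signal is quantified automatically using acetyl-H3K9 as the nuclear mask.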

Where [1] appears, read: chemogenomic (SMART) screen, BDNF-induced nuclear Arc expression, primary cortical neurons, BDNF control 19.5.
The mark [2] stands for this setting: nuclear Arc-positive cells relative to DMSO + BDNF control, negative values = decrease.
[3] abbreviates: BDNF-induced nuclear Arc expression, primary cortical neurons, chemogenomic screen.

Turning to `CCC1(c2ccccc2)C(=O)NCNC1=O` [Primidone], the “Percentage of cell with nuclear Arc immunostaining above 2σ threshold” value (from here on “Percentage of cell”) under setting [1] was found to be 17.3%.

For `CCN(CC)CCOC(=O)c1ccc(N)cc1` [Procaine hydrochloride], the “Percentage of cell” value under setting [1] is 37.1%. In addition, the “Fold-change — Normalized to DMSO control (BDNF)” value (“Fold-change — Normalized” for short) under setting [2] came out at 1.9 fold.

Regarding `CN1CCN(CCCN2c3ccccc3Sc3ccc(Cl)cc32)CC1` [Prochlorperazine], the “Percentage of cell” value under setting [3] is given as 0.375%.

Turning to `OC(CCN1CCCC1)(c1ccccc1)C1CCCCC1` (centres unmarked) [Procyclidine hydrochloride], the “Percentage of cell” value under setting [1] came to 19.3%.

On to `NC(=O)CCC/N=C(\c1ccc(Cl)cc1)c1cc(F)ccc1O` [Progabide], for which, under setting [1], the “Percentage of cell” value is listed as 19.5%. Moreover, the “Fold-change — Normalized” value under setting [2] stood at 1.0 fold.

For `CN(C)CCCN1c2ccccc2Sc2ccccc21` [Promazine], the “Percentage of cell” value under setting [3] was 9.7%.

For `CCCn1cnc2c1c(=O)n(CCCCC(C)=O)c(=O)n2C` [Propentofylline], the “Percentage of cell” value under setting [1] is listed as 33.4%. In addition, the “Fold-change — Normalized” value under setting [2] came to 1.7 fold.

For `COc1ccc(CN(CCN(C)C)c2ccccn2)cc1` [Pyrilamine maleate], under setting [1], the “Percentage of cell” value turned out to be 25.2%. In addition, the “Fold-change — Normalized” value under setting [2] was found to be 1.3 fold.

`Cc1ncc(CSSCc2cnc(C)c(O)c2CO)c(CO)c1O` [Pyrithioxine]: the “Percentage of cell” value under setting [1] amounted to 21.3%. Besides, the “Fold-change — Normalized” value under setting [2] is on record as 1.1 fold.

In the case of `OCCOCCN1CCN(C2=Nc3ccccc3Sc3ccccc32)CC1` [Quetiapine fumarate], the “Percentage of cell” value under setting [1] stood at 25.9%. The “Fold-change — Normalized” value under setting [2] is 1.3 fold.

As for `O=C(O)C(Cc1c[nH]c2ccccc12)N1C(=O)c2ccccc2C1=O` (centres unmarked) [RG-108], the “Percentage of cell” value is 35.1% and 27.5%. In addition, under setting [2], the “Fold-change — Normalized” value was 1.8 fold and 1.4 fold.

With `C#CCN[C@@H]1CCc2ccccc21` [Rasagiline], under setting [1], the “Percentage of cell” value was 14.8%.

Turning to `CCOc1ccccc1OC(c1ccccc1)C1CNCCO1` (centres unmarked) [Reboxetine], the “Percentage of cell” value is on record as 8.6%.

For the molecule `CCN1CCC[C@H]1CNC(=O)c1c(OC)ccc(Br)c1OC` [Remoxipride], the “Percentage of cell” value under setting [1] was determined as 35.4%. Also, the “Fold-change — Normalized” value under setting [2] is reported as 1.8 fold.

With `CCOc1cc(CC(=O)N[C@@H](CC(C)C)c2ccccc2N2CCCCC2)ccc1C(=O)O` [Repaglinide], the “Percentage of cell” value under setting [1] came to 19.5%. Also, the “Fold-change — Normalized” value under setting [2] was 1.0 fold.

Take `Oc1ccc(/C=C/c2cc(O)cc(O)c2)cc1` [Resveratrol]: under setting [1], the “Percentage of cell” value is on record as 36.0%. The “Fold-change — Normalized” value under setting [2] was 1.8 fold.

As to `CCOC(=O)Nc1ccc(NCc2ccc(F)cc2)cc1N` [Retigabine], the “Fold-change — Normalized” value was found to be 1.7 fold and the “Percentage of cell” value is 32.9%.

On to `Cc1nc2n(c(=O)c1CCN1CCC(c3noc4cc(F)ccc34)CC1)CCCC2` [Risperidone], for which the “Percentage of cell” value amounted to 6.3%.

In the case of `CCN(C)C(=O)Oc1cccc([C@H](C)N(C)C)c1` [Rivastigmine], the “Percentage of cell” value is listed as 33.7%. The “Fold-change — Normalized” value under setting [2] is 1.7 fold.

For the molecule `COc1ccc(C2CNC(=O)C2)cc1OC1CCCC1` (centres unmarked) [Rolipram], the “Percentage of cell” value under setting [1] stood at 21.4%. The “Fold-change — Normalized” value under setting [2] is reported as 1.1 fold.

`CCCN(CCC)CCc1cccc2c1CC(=O)N2` [Ropinirole]: the “Percentage of cell” value under setting [1] stood at 14.2%.

For `CC[C@H](CO)Nc1nc(NCc2ccccc2)c2ncn(C(C)C)c2n1` [Roscovitine], the “Fold-change — Normalized” value is given as 1.3 fold and the “Percentage of cell” value is recorded as 24.9%.

In the case of `CN(CCOc1ccc(CC2SC(=O)NC2=O)cc1)c1ccccn1` (centres unmarked) [Rosiglitazone], under setting [1], the “Percentage of cell” value is on record as 29.8%. Besides, under setting [2], the “Fold-change — Normalized” value was found to be 1.5 fold.

On to `COc1cc2c(cc1OC)[C@@H]1Cc3ccc(OC)c(OC)c3CN1CC2` [Rotundine], for which, under setting [1], the “Percentage of cell” value came to 28.7%. The “Fold-change — Normalized” value under setting [2] is 1.5 fold.

Turning to `NC(=O)c1cn(Cc2c(F)cccc2F)nn1` [Rufinamide], the “Percentage of cell” value under setting [1] amounted to 20.3%. Also, the “Fold-change — Normalized” value under setting [2] came out at 1.0 fold.

As to `C[S+](CC[C@H](N)C(=O)[O-])C[C@H]1O[C@@H](n2cnc3c(N)ncnc32)[C@H](O)[C@@H]1O` (some centres unmarked) [S-Adenosylmethionine], under setting [1], the “Percentage of cell” value is reported as 12.8%.

On to `Cl.O=C(O)C1CCCN(CCC=C(c2ccccc2)c2ccccc2)C1` (centres unmarked) [SKF 89976A hydrochloride], for which the “Percentage of cell” value is on record as 21.6%. The “Fold-change — Normalized” value under setting [2] is listed as 1.1 fold.

For `C[C@H](NCc1ccc(OCc2cccc(F)c2)cc1)C(N)=O` [Safinamide], the “Percentage of cell” value under setting [1] turned out to be 25.5%. Further, the “Fold-change — Normalized” value under setting [2] was 1.3 fold.

Take `OC[C@H]1O[C@@H](OCCc2ccc(O)cc2)[C@H](O)[C@@H](O)[C@@H]1O` [Salidroside]: the “Percentage of cell” value under setting [1] came to 30.7%. Moreover, under setting [2], the “Fold-change — Normalized” value was found to be 1.6 fold.

`C[C@H](O)[C@H](O)[C@H]1CNc2nc(N)[nH]c(=O)c2N1` [Sapropterin]: the “Percentage of cell” value under setting [1] was found to be 49.8%. The “Fold-change — Normalized” value under setting [2] came to 2.6 fold.

`OCCCCC#Cc1cncc(OC[C@@H]2CCN2)c1` [Sazetidine A]: the “Percentage of cell” value turned out to be 35.2%. Besides, the “Fold-change — Normalized” value under setting [2] came to 1.8 fold.

For `C#CCN(C)[C@H](C)Cc1ccccc1` [Selegiline], the “Percentage of cell” value came to 29.8%. Further, the “Fold-change — Normalized” value under setting [2] is 1.5 fold.

As to `O=C1NCCN1CCN1CCC(c2cn(-c3ccc(F)cc3)c3ccc(Cl)cc23)CC1` [Sertindole], the “Percentage of cell” value under setting [3] turned out to be 0.18%.

Turning to `CN[C@H]1CC[C@@H](c2ccc(Cl)c(Cl)c2)c2ccccc21` [Sertraline], the “Percentage of cell” value under setting [3] was 0.0%.

On to `CC(C)CC(N(C)C)C1(c2ccc(Cl)cc2)CCC1` (centres unmarked) [Sibutramine], for which the “Percentage of cell” value came to 21.3%. In addition, the “Fold-change — Normalized” value under setting [2] was determined as 1.1 fold.

Turning to `O=c1c(O)c(-c2ccc(O)c(O)c2)oc2cc(O)cc(O)c12` [Sophoretin], under setting [3], the “Percentage of cell” value came out at 9.3%.

Turning to `C1CCN2C[C@@H]3C[C@@H](CN4CCCC[C@@H]34)[C@H]2C1` [Sparteine], the “Percentage of cell” value is 25.6%. Under setting [2], the “Fold-change — Normalized” value was 1.3 fold.

Regarding `O=C(CCCN1CCC2(CC1)C(=O)NCN2c1ccccc1)c1ccc(F)cc1` [Spiperone], under setting [1], the “Percentage of cell” value was 23.6%. Also, the “Fold-change — Normalized” value under setting [2] worked out at 1.2 fold.

Turning to `C[S+]([O-])CCCCN=C=S` (centres unmarked) [Sulforaphane], the “Percentage of cell” value under setting [1] is listed as 18.2%.

Regarding `CCN1CCCC1CNC(=O)c1cc(S(N)(=O)=O)ccc1OC` (centres unmarked) [Sulpiride], the “Percentage of cell” value under setting [1] is 26.5%. In addition, under setting [2], the “Fold-change — Normalized” value is recorded as 1.4 fold.

In the case of `CN[C@@H]1Cc2cccc3[nH]c(=O)n(c23)C1` [Sumanirole], the “Percentage of cell” value under setting [1] is on record as 40.3%. Further, under setting [2], the “Fold-change — Normalized” value is recorded as 2.1 fold.

With `CNS(=O)(=O)Cc1ccc2[nH]cc(CCN(C)C)c2c1` [Sumatriptan succinate], under setting [1], the “Percentage of cell” value was 23.4%. Also, the “Fold-change — Normalized” value under setting [2] came to 1.2 fold.

With `CNCC(O)c1ccc(O)cc1` (centres unmarked) [Synephrine], under setting [1], the “Percentage of cell” value came to 27.8%. In addition, the “Fold-change — Normalized” value under setting [2] is given as 1.4 fold.

`Cn1sc(=O)n(Cc2ccccc2)c1=O` [TDZD-8]: the “Percentage of cell” value under setting [3] was 1.7%. For the same molecule, where the note is “nuclear Arc-positive cells relative to DMSO control (BDNF), negative = decrease”, the “Fold-change — Normalized” value is -11.7 fold.

Turning to `Nc1cccc(-c2cc3c(Oc4cccc(O)c4)ncnc3[nH]2)c1` [TWS119], the “Percentage of cell” value under setting [1] was 33.9%. Also, the “Fold-change — Normalized” value under setting [2] amounted to 1.7 fold.

Consider `CNC(=O)[C@@H](Cc1ccccc1)N(C)C(=O)[C@@H](Cc1ccc2ccccc2c1)N(C)C(=O)/C=C/CC(C)(C)N` [Tabimorelin], for which, under setting [3], the “Percentage of cell” value amounted to 7.1%.

On to `Nc1c2c(nc3ccccc13)CCCC2` [Tacrine], for which the “Percentage of cell” value under setting [3] is reported as 8.3%.

Regarding `O=C1[C@@H]2[C@H]3CC[C@H](C3)[C@@H]2C(=O)N1CCCCN1CCN(c2ncccn2)CC1` [Tandospirone], under setting [1], the “Percentage of cell” value was determined as 25.7%. Under setting [2], the “Fold-change — Normalized” value is 1.3 fold.

Regarding `COc1cc2c(cc1OC)C1CC(=O)C(CC(C)C)CN1CC2` (centres unmarked) [Tetrabenazine], the “Percentage of cell” value under setting [1] came to 24.9%. Also, under setting [2], the “Fold-change — Normalized” value was determined as 1.3 fold.

As for `CCNC(=O)CC[C@H](N)C(=O)O` [Theanine], under setting [3], the “Percentage of cell” value was found to be 9.1%.

Take `CCSc1ccc2c(c1)N(CCCN1CCN(C)CC1)c1ccccc1S2` [Thiethylperazine]: the “Percentage of cell” value under setting [3] amounted to 0.529%.

Turning to `CSc1ccc2c(c1)N(CCC1CCCCN1C)c1ccccc1S2` (centres unmarked) [Thioridazine], the “Percentage of cell” value under setting [3] is given as 0.0%.
